Experimental data reported in patent publication US6696491B2, “Treating irritable bowel syndrome or disease” (Meracol Corporation Limited, priority 2000, dated 2004).

How the values were obtained:
[1] = tested on: Irritable Bowel Syndrome / chronic diarrhea; assay: Earlier conventional medication of the trial patients (patient history); assay type: in vivo, human; conditions: for reduction of symptoms: Patient 3, IBS, tried over 40 years before the trial
Method: They were assessed by a gastroenterologist in 1989 and placed on long-term use of Imodium. This was given to reduce the number of bowel motions.
They also tried Colestid and was told to remain on this indefinitely to reduce their diarrhea.
Patient 3 was diagnosed with Irritable Bowel Syndrome, and over the next 40 years, tried many different medicines including Colestid sachets, Imodium, Codeine, cholestyramine, and Dicap. […] During this time, patient 3 has been admitted four times to a hospital for acute exacerbations of diarrhea.
Patient 4 has been diagnosed with irritable Bowel Syndrome for over a year and suffers from an extremely swollen abdomen with constant flatulence and diarrhea. Patient 4 has taken Mucilax, bran and has made major dietary alterations, all with no effect. Further effects of Irritable Bowel Syndrome to patient 4 included exhaustion, with the patient sleeping between 12-15 hours daily.

[2] = laboratory experiments; website www.gcinutrients.com; cited from earlier work
IBS and/or IBD = assay: Trials with a variety of patients using dosage forms of cetyl myristate alone; assay type: in vivo, human

Row | Molecule | reduction of symptoms [1] | reduction of the number of bowel motions ([1]; Patient 1, long-term use from 1989, before the trial) | anti-arthritic activity [2] | relief from the symptoms of IBS and/or IBD (IBS and/or IBD)
1 | COc1ccc2c3c1O[C@H]1[C@@H](O)C=C[C@H]4[C@@H](C2)N(C)CC[C@@]341 [Codeine] | none of the medicines listed were able to reduce the symptoms | – | – | –
2 | CN(C)C(=O)C(CCN1CCC(O)(c2ccc(Cl)cc2)CC1)(c1ccccc1)c1ccccc1 [Imodium] | none of the medicines listed were able to reduce the symptoms | some benefits from this but they did not improve sufficiently | – | –
3 | CCCCCCCCCCCCCCCCOC(=O)CCCCCCCCCCCCC [cetyl myristate] | – | – | negligible | favorable responses
4 | cholestyramine | none of the medicines listed were able to reduce the symptoms | – | – | –
